Laboratory results as given in PubChem BioAssay AID248 (DTP/NCI, 2004).
Values joined by “and” are separate entries in the source; they are usually repeats but may differ in a detail not shown here. Equal entries are not always repeated. Toxic doses and inconclusive results are not listed. No stated cut-off is given here; in the data, active means T/C of 150% or more; inactive means T/C below 125%. Numbered stars: 1 amine (or outer) side, 2 acyl side, 3 side chain; on linkers, the order of the positions; unused ones are H or OH. Bridge positions count the residues as written; N and C are the ends. Square brackets hold non-standard residues; d marks the D form. Peptide text beside a SMILES is read from it. I, II: the chains in the order shown. Actinocin(9to1) = Cc1c2oc3c(C)ccc(C(=O)[*:1])c3nc-2c(C(=O)[*:2])c(N)c1=O; NMeV = CN[CH](C(=O)O)C(C)C; Sar = CNCC(=O)O

System: L1210 leukemia ip in BDF1 mice, survival T/C
Assay: NCI In Vivo Anticancer Drug Screen. Data for tumor model L1210 Leukemia (intraperitoneal) in B6D2F1 (BDF1) mice
Details: endpoint: mean survival time, higher = longer survival
Summary of the method: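 Value reflects the ratio of survival in compound-treated mice to survival in vehicle-treated controls, with both groups carrying the same transplanted tumor.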

[1] = dose: 25.0 mg/kg/injection, schedule: Q01DX009 (ip), vehicle: saline
[2] = dose: 50.0 mg/kg/injection, schedule: Q01DX009 (ip), vehicle: saline
[3] = dose: 100.0 mg/kg/injection, schedule: Q01DX001 (ip), vehicle: saline
[4] = dose: 100.0 mg/kg/injection, schedule: Q01DX009 (ip), vehicle: saline
[5] = dose: 100.0 mg/kg/injection, schedule: Q04DX003 (ip), vehicle: saline
[6] = dose: 200.0 mg/kg/injection, schedule: Q01DX001 (ip), vehicle: saline
[7] = dose: 200.0 mg/kg/injection, schedule: Q04DX003 (ip), vehicle: saline
[8] = dose: 0.75 mg/kg/injection, schedule: Q01DX009 (ip), vehicle: Klucel (hydroxypropylcellulose) (HPC)
[9] = dose: 100.0 mg/kg/injection, schedule: Q04DX003 (ip), vehicle: Klucel (hydroxypropylcellulose) (HPC)
[10] = dose: 200.0 mg/kg/injection, schedule: Q04DX003 (ip), vehicle: Klucel (hydroxypropylcellulose) (HPC)
[11] = dose: 400.0 mg/kg/injection, schedule: Q04DX003 (ip), vehicle: Klucel (hydroxypropylcellulose) (HPC)
[12] = dose: 100.0 mg/kg/injection, schedule: Q01DX009 (ip), vehicle: saline with Tween-80
[13] = dose: 100.0 mg/kg/injection, schedule: Q01DX001 (ip), vehicle: Klucel (hydroxypropylcellulose) (HPC)
[14] = dose: 200.0 mg/kg/injection, schedule: Q01DX001 (ip), vehicle: Klucel (hydroxypropylcellulose) (HPC)
[15] = dose: 400.0 mg/kg/injection, schedule: Q01DX001 (ip), vehicle: Klucel (hydroxypropylcellulose) (HPC)

Measured: T/C

N[C@@H](Cc1ccc(O)c(O)c1)C(=O)O
inactive: [1] 101 % of control | dose: 25.0 mg/kg/injection, schedule: Q04DX003 (ip), vehicle: saline 94 % of control | dose: 50.0 mg/kg/injection, schedule: Q01DX001 (ip), vehicle: saline 87 % of control | [2] 100 % of control and 105 % of control | dose: 50.0 mg/kg/injection, schedule: Q04DX003 (ip), vehicle: saline 103 % of control and 105 % of control | [3] 94 % of control | [4] 92 % of control and 97 % of control | [5] 110 % of control | [6] 113 % of control | dose: 200.0 mg/kg/injection, schedule: Q01DX009 (ip), vehicle: saline 97 % of control and 105 % of control | [7] 98 % of control and 105 % of control | dose: 400.0 mg/kg/injection, schedule: Q01DX001 (ip), vehicle: saline 94 % of control | dose: 400.0 mg/kg/injection, schedule: Q01DX009 (ip), vehicle: saline 108 % of control and 112 % of control | dose: 400.0 mg/kg/injection, schedule: Q04DX003 (ip), vehicle: saline 94 % of control and 97 % of control

CC12CCC3c4ccc(Oc5ccccc5[N+](=O)[O-])cc4CCC3C1CCC2=O (configuration not stated)
inactive: dose: 100.0 mg/kg/injection, schedule: Q01DX001 (sc), vehicle: steriod suspending solution 100 % of control | dose: 200.0 mg/kg/injection, schedule: Q01DX001 (sc), vehicle: steriod suspending solution 103 % of control | dose: 400.0 mg/kg/injection, schedule: Q01DX001 (sc), vehicle: steriod suspending solution 103 % of control

Cc1cc(N)c2ccccc2[n+]1CCCCCCCCCC[n+]1c(C)cc(N)c2ccccc21
inactive: [8] 100 % of control | dose: 1.5 mg/kg/injection, schedule: Q01DX009 (ip), vehicle: Klucel (hydroxypropylcellulose) (HPC) 109 % of control | dose: 1.5 mg/kg/injection, schedule: Q04DX003 (ip), vehicle: Klucel (hydroxypropylcellulose) (HPC) 103 % of control | dose: 3.0 mg/kg/injection, schedule: Q01DX009 (ip), vehicle: Klucel (hydroxypropylcellulose) (HPC) 119 % of control and 124 % of control | dose: 3.0 mg/kg/injection, schedule: Q04DX003 (ip), vehicle: Klucel (hydroxypropylcellulose) (HPC) 110 % of control | dose: 6.0 mg/kg/injection, schedule: Q04DX003 (ip), vehicle: Klucel (hydroxypropylcellulose) (HPC) 116 % of control | dose: 12.5 mg/kg/injection, schedule: Q04DX003 (ip), vehicle: Klucel (hydroxypropylcellulose) (HPC) 103 % of control

OCCCNc1nc2cc(Br)ccc2c2ccc(Br)cc12
inactive: [9] 90 % of control | [10] 105 % of control | [11] 97 % of control

N=C1C=C(N)C(=O)c2ccccc21
inactive: dose: 0.78 mg/kg/injection, schedule: Q01DX009 (ip), vehicle: Klucel (hydroxypropylcellulose) (HPC) 103 % of control | dose: 1.56 mg/kg/injection, schedule: Q01DX009 (ip), vehicle: Klucel (hydroxypropylcellulose) (HPC) 103 % of control | dose: 3.13 mg/kg/injection, schedule: Q01DX009 (ip), vehicle: Klucel (hydroxypropylcellulose) (HPC) 107 % of control | [12] 101 % of control

CC(C)(C#N)C(C)(C)c1cnc2ccccc2c1
inactive: [9] 96 % of control | [10] 101 % of control

O=C(NCCCl)Nc1ccc(Cl)cc1
inactive: [13] 104 % of control | [14] 102 % of control | [15] 91 % of control

CC(=O)OCC(=O)[C@@]1(O)CC[C@H]2[C@@H]3C[C@@H](C)C4=CC(=O)C=C[C@]4(C)[C@H]3[C@@H](O)C[C@@]21C
inactive: dose: 75.0 mg/kg/injection, schedule: Q01DX009 (sc), vehicle: steriod suspending solution 92 % of control | dose: 100.0 mg/kg/injection, schedule: Q04DX003 (ip), vehicle: steriod suspending solution 97 % of control | dose: 100.0 mg/kg/injection, schedule: Q04DX003 (sc), vehicle: steriod suspending solution 100 % of control | dose: 150.0 mg/kg/injection, schedule: Q01DX009 (sc), vehicle: steriod suspending solution 92 % of control | dose: 200.0 mg/kg/injection, schedule: Q04DX003 (ip), vehicle: steriod suspending solution 91 % of control | dose: 200.0 mg/kg/injection, schedule: Q04DX003 (sc), vehicle: steriod suspending solution 102 % of control | dose: 300.0 mg/kg/injection, schedule: Q01DX009 (sc), vehicle: steriod suspending solution 92 % of control | dose: 400.0 mg/kg/injection, schedule: Q04DX003 (ip), vehicle: steriod suspending solution 94 % of control | dose: 400.0 mg/kg/injection, schedule: Q04DX003 (sc), vehicle: steriod suspending solution 103 % of control

CC[N+](C)(C)CCOC(=O)C1C2CC3OC(=O)C1C3C2 (configuration not stated)
inactive: [5] 97 % of control | [7] 101 % of control

COc1cc(/C=C/[N+](=O)[O-])c([N+](=O)[O-])cc1OC
inactive: dose: 50.0 mg/kg/injection, schedule: Q01DX009 (ip), vehicle: saline with Tween-80 90 % of control | [3] 106 % of control | [12] 87 % of control | [6] 101 % of control

Cc1c2oc3c(C)ccc(C(=O)NC4C(=O)NC(C(C)C)C(=O)N5CCCC5C(=O)N(C)CC(=O)N(C)C(C(C)C)C(=O)OC4C)c3nc-2c(C(=O)NC2C(=O)NC(C(C)C)C(=O)N3CCCC3C(=O)N(C)CC(=O)N(C)C(C(C)C)C(=O)OC2C)c(N)c1=O (configuration not stated) (I: TVP[Sar][NMeV] / II: TVP[Sar][NMeV]; ester I:1-I:C, II:1-II:C; linker I:N-II:N via Actinocin(9to1); configuration not given here)
inactive: dose: 0.05 mg/kg/injection, schedule: Q01DX009 (ip), vehicle: water 117 % of control | dose: 0.1 mg/kg/injection, schedule: Q01DX009 (ip), vehicle: water 106 % of control | dose: 0.2 mg/kg/injection, schedule: Q01DX009 (ip), vehicle: water 120 % of control | dose: 0.3 mg/kg/injection, schedule: Q04DX003 (ip), vehicle: water 124 % of control | dose: 0.4 mg/kg/injection, schedule: Q01DX009 (ip), vehicle: water 93 % of control | dose: 1.2 mg/kg/injection, schedule: Q04DX003 (ip), vehicle: water 110 % of control | dose: 1.8 mg/kg/injection, schedule: Q04DX003 (ip), vehicle: water 91 % of control

CC(C)C(=O)NCc1ccccc1
inactive: dose: 100.0 mg/kg/injection, schedule: Q04DX002 (ip), vehicle: Klucel (hydroxypropylcellulose) (HPC) 104 % of control | dose: 200.0 mg/kg/injection, schedule: Q04DX002 (ip), vehicle: Klucel (hydroxypropylcellulose) (HPC) 101 % of control | dose: 400.0 mg/kg/injection, schedule: Q04DX002 (ip), vehicle: Klucel (hydroxypropylcellulose) (HPC) 90 % of control

CCCCN(CCCC)c1ccc(N=C(C#N)c2ccc(N(CCCC)CCCC)cc2)cc1
inactive: dose: 100.0 mg/kg/injection, schedule: Q01DX009 (ip), vehicle: Klucel (hydroxypropylcellulose) (HPC) 96 % of control | dose: 200.0 mg/kg/injection, schedule: Q01DX009 (ip), vehicle: Klucel (hydroxypropylcellulose) (HPC) 96 % of control | dose: 400.0 mg/kg/injection, schedule: Q01DX009 (ip), vehicle: Klucel (hydroxypropylcellulose) (HPC) 105 % of control

O=[N+]([O-])c1ccc(CSC2=NCCN2)cc1
inactive: [1] 96 % of control | [2] 104 % of control | [4] 98 % of control

Nc1ncnc2c(-c3ccccc3)c[nH]c12
inactive: [13] 102 % of control | [9] 100 % of control | [14] 97 % of control | [10] 100 % of control | [15] 91 % of control | [11] 104 % of control

Nc1ncnc(N2CCOCC2)n1
inactive: dose: 100.0 mg/kg/injection, schedule: Q01DX001 (ip), vehicle: carboxymethylcellulose (CMC) 96 % of control | dose: 200.0 mg/kg/injection, schedule: Q01DX001 (ip), vehicle: carboxymethylcellulose (CMC) 107 % of control | dose: 400.0 mg/kg/injection, schedule: Q01DX001 (ip), vehicle: carboxymethylcellulose (CMC) 100 % of control

CC(=O)[O][Sn]([CH3])([CH3])[CH3]
inactive: dose: 0.18 mg/kg/injection, schedule: Q01DX009 (ip), vehicle: Klucel (hydroxypropylcellulose) (HPC) 93 % of control | dose: 0.37 mg/kg/injection, schedule: Q01DX009 (ip), vehicle: Klucel (hydroxypropylcellulose) (HPC) 96 % of control | [8] 104 % of control

c1ccc2[nH]c(CN3CCCCC3)cc2c1
inactive: dose: 12.5 mg/kg/injection, schedule: Q04DX003 (ip), vehicle: saline with Tween-80 103 % of control | dose: 25.0 mg/kg/injection, schedule: Q04DX003 (ip), vehicle: saline with Tween-80 98 % of control | dose: 50.0 mg/kg/injection, schedule: Q04DX003 (ip), vehicle: saline with Tween-80 98 % of control
